Key:
Assay in all cases: relative viability (nuclei count vs DMSO), 5 days (fraction); higher = more cells survive
Selisistat + OSI-027 = compound: C1CC(C2=C(C1)C3=C(N2)C=CC(=C3)Cl)C(=O)N [Selisistat] + COc1cccc2cc(-c3nc([C@H]4CC[C@H](C(=O)O)CC4)n4ncnc(N)c34)[nH]c12 [OSI-027] (partner 0.5 µM)
How it was run: (§1)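 Five library-drug doses in √10 steps were combined with a fixed anchor-drug dose, or a single drug was given alone, by pin tool to lung cancer cell lines in 1536-well plates the day after seeding. Nuclei were stained and counted after 5 days. Relative viability is the nuclei count in treated wells over that in vehicle wells, taken as the median of duplicate plates.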

Serdemetan + Lapatinib = compound: c1ccc2c(CCNc3ccc(Nc4ccncc4)cc3)c[nH]c2c1 [Serdemetan] + CS(=O)(=O)CCNCc1ccc(-c2ccc3ncnc(Nc4ccc(OCc5cccc(F)c5)c(Cl)c4)c3c2)o1 [Lapatinib] (partner 2 µM)
How it was run: as §1

Serdemetan + Dasatinib = compound: c1ccc2c(CCNc3ccc(Nc4ccncc4)cc3)c[nH]c2c1 [Serdemetan] + Cc1nc(Nc2ncc(C(=O)Nc3c(C)cccc3Cl)s2)cc(N2CCN(CCO)CC2)n1 [Dasatinib] (partner 0.075 µM)
How it was run: as §1

Selisistat + Pictilisib = compound: C1CC(C2=C(C1)C3=C(N2)C=CC(=C3)Cl)C(=O)N [Selisistat] + CS(=O)(=O)N1CCN(Cc2cc3nc(-c4cccc5[nH]ncc45)nc(N4CCOCC4)c3s2)CC1 [Pictilisib] (partner 1 µM)
How it was run: as §1

## NCI-H1993
Selisistat + OSI-027; first compound 0.4 µM
  relative viability: 0.506
Selisistat + OSI-027; first compound 1.265 µM
  relative viability: 0.584
Selisistat + OSI-027; first compound 4 µM
  relative viability: 0.618
Selisistat + OSI-027; first compound 12.65 µM
  relative viability: 0.554
Selisistat + OSI-027; first compound 40 µM
  relative viability: 0.542
Serdemetan + Lapatinib; first compound 0.04 µM
  relative viability: 0.873
Serdemetan + Lapatinib; first compound 0.1265 µM
  relative viability: 0.861
Serdemetan + Lapatinib; first compound 0.4 µM
  relative viability: 0.75
Serdemetan + Lapatinib; first compound 4 µM
  relative viability: 0.768
Serdemetan + Dasatinib; first compound 0.04 µM
  relative viability: 0.578
Serdemetan + Dasatinib; first compound 0.1265 µM
  relative viability: 0.698
Serdemetan + Dasatinib; first compound 0.4 µM
  relative viability: 0.517
Serdemetan + Dasatinib; first compound 1.265 µM
  relative viability: 0.507
Serdemetan + Dasatinib; first compound 4 µM
  relative viability: 0.461
Selisistat + Pictilisib; first compound 0.4 µM
  relative viability: 0.702
Selisistat + Pictilisib; first compound 1.265 µM
  relative viability: 0.81
Selisistat + Pictilisib; first compound 12.65 µM
  relative viability: 0.828
Selisistat + Pictilisib; first compound 40 µM
  relative viability: 0.854

## NCI-H322M
Selisistat + OSI-027; first compound 0.4 µM
  relative viability: 0.607
Selisistat + OSI-027; first compound 1.265 µM
  relative viability: 0.583
Selisistat + OSI-027; first compound 4 µM
  relative viability: 0.461
Selisistat + OSI-027; first compound 12.65 µM
  relative viability: 0.507
Selisistat + OSI-027; first compound 40 µM
  relative viability: 0.576
Serdemetan + Lapatinib; first compound 0.04 µM
  relative viability: 0.577
Serdemetan + Lapatinib; first compound 0.1265 µM
  relative viability: 0.585
Serdemetan + Lapatinib; first compound 0.4 µM
  relative viability: 0.546
Serdemetan + Lapatinib; first compound 1.265 µM
  relative viability: 0.546
Serdemetan + Lapatinib; first compound 4 µM
  relative viability: 0.562
Serdemetan + Dasatinib; first compound 0.04 µM
  relative viability: 0.266
Serdemetan + Dasatinib; first compound 0.1265 µM
  relative viability: 0.24
Serdemetan + Dasatinib; first compound 0.4 µM
  relative viability: 0.248
Serdemetan + Dasatinib; first compound 1.265 µM
  relative viability: 0.214
Serdemetan + Dasatinib; first compound 4 µM
  relative viability: 0.272
Selisistat + Pictilisib; first compound 0.4 µM
  relative viability: 0.562
Selisistat + Pictilisib; first compound 1.265 µM
  relative viability: 0.525
Selisistat + Pictilisib; first compound 12.65 µM
  relative viability: 0.549
Selisistat + Pictilisib; first compound 40 µM
  relative viability: 0.604

## NCI-H838
Selisistat + OSI-027; first compound 0.4 µM
  relative viability: 0.449
Selisistat + OSI-027; first compound 1.265 µM
  relative viability: 0.368
Selisistat + OSI-027; first compound 4 µM
  relative viability: 0.295
Selisistat + OSI-027; first compound 12.65 µM
  relative viability: 0.407
Selisistat + OSI-027; first compound 40 µM
  relative viability: 0.409
Serdemetan + Lapatinib; first compound 0.04 µM
  relative viability: 0.9
Serdemetan + Lapatinib; first compound 0.1265 µM
  relative viability: 0.986
Serdemetan + Lapatinib; first compound 0.4 µM
  relative viability: 0.9
Serdemetan + Lapatinib; first compound 1.265 µM
  relative viability: 0.86
Serdemetan + Lapatinib; first compound 4 µM
  relative viability: 1.01
Serdemetan + Dasatinib; first compound 0.04 µM
  relative viability: 0.291
Serdemetan + Dasatinib; first compound 0.1265 µM
  relative viability: 0.345
Serdemetan + Dasatinib; first compound 0.4 µM
  relative viability: 0.272
Serdemetan + Dasatinib; first compound 1.265 µM
  relative viability: 0.276
Serdemetan + Dasatinib; first compound 4 µM
  relative viability: 0.273
Selisistat + Pictilisib; first compound 0.4 µM
  relative viability: 0.48
Selisistat + Pictilisib; first compound 1.265 µM
  relative viability: 0.514
Selisistat + Pictilisib; first compound 4 µM
  relative viability: 0.39
Selisistat + Pictilisib; first compound 12.65 µM
  relative viability: 0.489
Selisistat + Pictilisib; first compound 40 µM
  relative viability: 0.446

## NCI-H2342
Selisistat + OSI-027; first compound 0.4 µM
  relative viability: 0.654
Selisistat + OSI-027; first compound 1.265 µM
  relative viability: 0.589
Selisistat + OSI-027; first compound 4 µM
  relative viability: 0.493
Selisistat + OSI-027; first compound 12.65 µM
  relative viability: 0.577
Selisistat + OSI-027; first compound 40 µM
  relative viability: 0.628
Serdemetan + Dasatinib; first compound 0.04 µM
  relative viability: 0.309
Serdemetan + Dasatinib; first compound 0.1265 µM
  relative viability: 0.302
Serdemetan + Dasatinib; first compound 0.4 µM
  relative viability: 0.291
Serdemetan + Dasatinib; first compound 1.265 µM
  relative viability: 0.28
Serdemetan + Dasatinib; first compound 4 µM
  relative viability: 0.301

## ChaGo-K-1
Selisistat + OSI-027; first compound 0.4 µM
  relative viability: 0.588
Selisistat + OSI-027; first compound 1.265 µM
  relative viability: 0.461
Selisistat + OSI-027; first compound 4 µM
  relative viability: 0.492
Selisistat + OSI-027; first compound 12.65 µM
  relative viability: 0.535
Selisistat + OSI-027; first compound 40 µM
  relative viability: 0.617
Serdemetan + Dasatinib; first compound 0.04 µM
  relative viability: 0.587
Serdemetan + Dasatinib; first compound 0.1265 µM
  relative viability: 0.562
Serdemetan + Dasatinib; first compound 0.4 µM
  relative viability: 0.572
Serdemetan + Dasatinib; first compound 1.265 µM
  relative viability: 0.249
Serdemetan + Dasatinib; first compound 4 µM
  relative viability: 0.24
Selisistat + Pictilisib; first compound 0.4 µM
  relative viability: 0.804
Selisistat + Pictilisib; first compound 1.265 µM
  relative viability: 0.844
Selisistat + Pictilisib; first compound 12.65 µM
  relative viability: 0.675
Selisistat + Pictilisib; first compound 40 µM
  relative viability: 0.646

## HCC-44
Selisistat + OSI-027; first compound 0.4 µM
  relative viability: 0.591
Selisistat + OSI-027; first compound 12.65 µM
  relative viability: 0.457
Selisistat + OSI-027; first compound 40 µM
  relative viability: 0.586
Serdemetan + Lapatinib; first compound 0.04 µM
  relative viability: 0.875
Serdemetan + Lapatinib; first compound 0.1265 µM
  relative viability: 0.99
Serdemetan + Lapatinib; first compound 0.4 µM
  relative viability: 0.862
Serdemetan + Lapatinib; first compound 1.265 µM
  relative viability: 0.913
Serdemetan + Lapatinib; first compound 4 µM
  relative viability: 0.873
Selisistat + Pictilisib; first compound 0.4 µM
  relative viability: 0.633
Selisistat + Pictilisib; first compound 1.265 µM
  relative viability: 0.551
Selisistat + Pictilisib; first compound 4 µM
  relative viability: 0.595
Selisistat + Pictilisib; first compound 12.65 µM
  relative viability: 0.599
Selisistat + Pictilisib; first compound 40 µM
  relative viability: 0.436

## A549
Serdemetan + Lapatinib; first compound 0.04 µM
  relative viability: 1.06
Serdemetan + Lapatinib; first compound 0.1265 µM
  relative viability: 0.916
Serdemetan + Lapatinib; first compound 0.4 µM
  relative viability: 0.901
Serdemetan + Lapatinib; first compound 1.265 µM
  relative viability: 0.953
Serdemetan + Lapatinib; first compound 4 µM
  relative viability: 0.455
Selisistat + Pictilisib; first compound 0.4 µM
  relative viability: 0.605
Selisistat + Pictilisib; first compound 1.265 µM
  relative viability: 0.478
Selisistat + Pictilisib; first compound 4 µM
  relative viability: 0.525
Selisistat + Pictilisib; first compound 12.65 µM
  relative viability: 0.55
Selisistat + Pictilisib; first compound 40 µM
  relative viability: 0.449

## SW 900
Selisistat + OSI-027; first compound 0.4 µM
  relative viability: 0.447
Selisistat + OSI-027; first compound 1.265 µM
  relative viability: 0.57
Selisistat + OSI-027; first compound 4 µM
  relative viability: 0.462
Selisistat + OSI-027; first compound 12.65 µM
  relative viability: 0.495
Selisistat + OSI-027; first compound 40 µM
  relative viability: 0.484
Serdemetan + Dasatinib; first compound 0.04 µM
  relative viability: 0.502
Serdemetan + Dasatinib; first compound 0.1265 µM
  relative viability: 0.471
Serdemetan + Dasatinib; first compound 0.4 µM
  relative viability: 0.484
Serdemetan + Dasatinib; first compound 1.265 µM
  relative viability: 0.385
Serdemetan + Dasatinib; first compound 4 µM
  relative viability: 0.345

## IA-LM
Serdemetan + Lapatinib; first compound 0.04 µM
  relative viability: 0.723
Serdemetan + Lapatinib; first compound 0.1265 µM
  relative viability: 1
Serdemetan + Lapatinib; first compound 0.4 µM
  relative viability: 0.655
Serdemetan + Lapatinib; first compound 1.265 µM
  relative viability: 0.584
Serdemetan + Lapatinib; first compound 4 µM
  relative viability: 0.322
Selisistat + Pictilisib; first compound 0.4 µM
  relative viability: 0.277
Selisistat + Pictilisib; first compound 1.265 µM
  relative viability: 0.368
Selisistat + Pictilisib; first compound 4 µM
  relative viability: 0.353
Selisistat + Pictilisib; first compound 12.65 µM
  relative viability: 0.502
Selisistat + Pictilisib; first compound 40 µM
  relative viability: 0.375

## NCI-H1703
Serdemetan + Lapatinib; first compound 0.04 µM
  relative viability: 1.38
Serdemetan + Lapatinib; first compound 0.1265 µM
  relative viability: 1.05
Serdemetan + Lapatinib; first compound 0.4 µM
  relative viability: 1.07
Serdemetan + Lapatinib; first compound 1.265 µM
  relative viability: 1.09
Serdemetan + Lapatinib; first compound 4 µM
  relative viability: 0.885
Selisistat + Pictilisib; first compound 0.4 µM
  relative viability: 0.232
Selisistat + Pictilisib; first compound 1.265 µM
  relative viability: 0.217
Selisistat + Pictilisib; first compound 4 µM
  relative viability: 0.242
Selisistat + Pictilisib; first compound 12.65 µM
  relative viability: 0.267
Selisistat + Pictilisib; first compound 40 µM
  relative viability: 0.233

## NCI-H441
Selisistat + OSI-027; first compound 0.4 µM
  relative viability: 0.658
Selisistat + OSI-027; first compound 1.265 µM
  relative viability: 0.532
Selisistat + OSI-027; first compound 4 µM
  relative viability: 0.481
Selisistat + OSI-027; first compound 12.65 µM
  relative viability: 0.544
Selisistat + OSI-027; first compound 40 µM
  relative viability: 0.754
Serdemetan + Dasatinib; first compound 0.04 µM
  relative viability: 0.69
Serdemetan + Dasatinib; first compound 0.1265 µM
  relative viability: 0.649
Serdemetan + Dasatinib; first compound 0.4 µM
  relative viability: 0.516
Serdemetan + Dasatinib; first compound 1.265 µM
  relative viability: 0.585
Serdemetan + Dasatinib; first compound 4 µM
  relative viability: 0.435
Selisistat + Pictilisib; first compound 0.4 µM
  relative viability: 0.511
Selisistat + Pictilisib; first compound 1.265 µM
  relative viability: 0.44
Selisistat + Pictilisib; first compound 4 µM
  relative viability: 0.405
Selisistat + Pictilisib; first compound 12.65 µM
  relative viability: 0.547
Selisistat + Pictilisib; first compound 40 µM
  relative viability: 0.48

## LCLC-103H
Selisistat + OSI-027; first compound 0.4 µM
  relative viability: 0.486
Selisistat + OSI-027; first compound 1.265 µM
  relative viability: 0.469
Selisistat + OSI-027; first compound 4 µM
  relative viability: 0.348
Selisistat + OSI-027; first compound 12.65 µM
  relative viability: 0.479
Selisistat + OSI-027; first compound 40 µM
  relative viability: 0.442
Serdemetan + Dasatinib; first compound 0.04 µM
  relative viability: 0.466
Serdemetan + Dasatinib; first compound 0.1265 µM
  relative viability: 0.434
Serdemetan + Dasatinib; first compound 0.4 µM
  relative viability: 0.539
Serdemetan + Dasatinib; first compound 1.265 µM
  relative viability: 0.331
Serdemetan + Dasatinib; first compound 4 µM
  relative viability: 0.482
Selisistat + Pictilisib; first compound 0.4 µM
  relative viability: 0.662
Selisistat + Pictilisib; first compound 1.265 µM
  relative viability: 0.629
Selisistat + Pictilisib; first compound 4 µM
  relative viability: 0.464
Selisistat + Pictilisib; first compound 12.65 µM
  relative viability: 0.508
Selisistat + Pictilisib; first compound 40 µM
  relative viability: 0.666

## NCI-H1648
Selisistat + OSI-027; first compound 0.4 µM
  relative viability: 0.274
Selisistat + OSI-027; first compound 1.265 µM
  relative viability: 0.274
Selisistat + OSI-027; first compound 4 µM
  relative viability: 0.264
Selisistat + OSI-027; first compound 12.65 µM
  relative viability: 0.237
Selisistat + OSI-027; first compound 40 µM
  relative viability: 0.277

— the supplement of paper PMC10307832
